From patent publication US20140308657A1, “SERINE PROTEASE INHIBITOR KAZAL ANTIBODIES” (priority 2010, published 2014)
Like-named read-outs stand apart in the source and are kept apart here. Where a SMILES comes first, the peptide text is derived from it. The star is where a group is joined. Cbz = O=C(OCc1ccccc1)*; CH2F = FC*

Key:
prostate tumor cells = settings: cited from earlier work
caspase 3 = experiment: Caspase 3 activity in S2-3 and Huh7T cells; type: cell-based, human; settings: 40 hours treatment, caspase 3 kit
Protocol: FIG. 5B. The activation of caspase 3 (CDCA) in S2-3 cells treated with etoposide but not BFA/CHX/Z-VAD. The S2-3 cell and its parental cell Huh7T were either treated with SPDCA inducer BFA/CHX/ZVAD or CDCA inducer etoposide. The caspase activity was determined after […] treatment by Caspase 3 detection kit (Biovision, Mountain View, Calif.).
The same level of apoptosis induced by etoposide in S2-3 cell and Huh7T cell was confirmed by the examination of caspase 3 activity in these cells. After 40 hours treatment, all cells were lysed in […] lysis buffer. […] lysate of each sample was analyzed for caspase 3 activity test using caspase 3 detected kits [Biovision, Mountain View, Calif.]. […] Additionally, the activity of caspase3 was not increased in the cells, in which SPDCA was induced by BFA/CHX, even by double doses [FIG. 5B, B/C/ZX2].

HepG2.215 and G54 = experiment: Etoposide induced CDCA in HepG2.215 and G54 cells; type: cell-based, human; settings: HepG2.215 and G54, data not shown
Protocol: To study the influence of HCV replication upon SPDCA, G54 and Huh7T cells (its parent cell) were seeded in a 60 mm dish. SPDCA was induced by BFA/CHX/Z-VAD. […] The insensitivity of HCV replicon cell to SPDCA was also seen subsequently by annexin staining. Compared to the parental cells, much fewer HCV expressing cells were stained by annexin after being treated with SPDCA inducers BFA/CHX/Z-VAD [FIG. 8C, Annexin]. DNA fragmentation study also support that the HCV expressing cells were more resistant to apoptosis. 70 hours treatment of BFA/CHX/Z-VAD obviously triggered the DNA fragmentation in Huh7T cell, but not in G54 cells [FIG. 8D]. […] In contrast, both HepG2.215 and G54 are sensitive to CDCA induced by etoposide [data not shown].

Huh7T cells = experiment: Etoposide induced CDCA, annexin stain, Huh7T cells; type: cell-based, human; settings: Huh7T cell, 40 hours treatment
Protocol: (§1) FIG. 5A. S2-3 and Huh7T cells were treated with CDCA inducer 400 μM etoposide. After 40 hours, the cells apoptosis was examined in microscope and stained with annexin.
(§2) 10^5 S2-3 and Huh7T cells were seeded in 60 mm dishes. When the cell reached 90% confluent, CDCA inducer etoposide was added. After 28-40 hours, the cell shrinkage, blebbing and detachment from culture was found in both cell lines. At the same time, the strong fluorescence stain by annexin was also observed in both cell lines [FIG. 5A]. The amount of apoptotic cells in two cell lines was very similar. Around 62% S2-3 cell was stained by annexin, while 58% of Huh7T cell was stained after 40 hours treatment [data not shown].

S2-3 cells = experiment: Etoposide induced CDCA, annexin stain, S2-3 cells; type: cell-based, human; settings: S2-3 cell, 40 hours treatment
Protocol: as §1, §2

HCV replicon = experiment: HCV replication in HCV replicon cells (Northern blot of HCV RNA); type: cell-based; settings: 10^5 IU/ml overnight
Protocol: (§3) FIG. 7A-7B. SPIK in the HCV expressing cells. SPIK RNA was detected in the cells with/without HCV replicon as before. HCV RNA was defined by the hybridization of membrane with radio-labeled probe specified HCV.
(§4) FIG. 7B—HCV replicon cells were incubated with HCV polymerase inhibitor 888 (2 mM) 2 days (Lines 3 & 4 duplicate) and 10^5 IU/ml interferon-a overnight (Lines 5 & 6 duplicate) or left untreated (Line 1 & 2 duplicate). The suppressions of HCV RNA and SPIK RNA then were analyzed by Northern blot as before. The smear detected by HCV probe under the band of HCV RNA probably was the replication form of HCV.
(§5) Over-expression of SPIK RNA in G54 cells can be abrogated by inhibition of HCV replication. Treatment of HCV replicon cells with either 2 mM of the HCV polymerase inhibitor 888 for two days or 10^5 IU/ml interferon-a overnight has reduced HCV replication by approximately 90% [FIG. 7B, lane 3-6]. This is consistent with previous reports of these antiviral agents (55, 56).

SPIK RNA = SPIK RNA level in G54 HCV replicon cells after antiviral treatment; type: cell-based, human; settings: 10^5 IU/ml overnight
Protocol: as §3, §4, §5

NCCc1ccc(S(=O)(=O)F)cc1 [AEBSF, 4-2-aminoethyl-benzenesulfonyl fluoride]
block of FADD induced apoptosis (prostate tumor cells; combining use of Z-VAD and AEBSF): completely blocked

CC(NC(=O)C(NC(=O)OCc1ccccc1)C(C)C)C(=O)NC(CC(=O)O)C(=O)CF (stereo not drawn) [Z-VAD] (Cbz-Val-Ala-Asp-CH2F; configuration not given here)
caspase 3 activity (caspase 3): kept unchanged
block of FADD induced apoptosis (prostate tumor cells; alone): unable to be completely blocked

COc1cc([C@@H]2c3cc4c(cc3[C@@H](O[C@@H]3O[C@@H]5CO[C@@H](C)O[C@H]5[C@H](O)[C@H]3O)[C@H]3COC(=O)[C@H]23)OCO4)cc(OC)c1O [etoposide]
sensitivity to CDCA (HepG2.215 and G54): sensitive
cells stained by annexin (Huh7T cells): 58%
caspase 3 activity (caspase 3): at the same level in both cells
cells stained by annexin (S2-3 cells): Around 62%

interferon-a
reduction of HCV replication (HCV replicon): approximately 90%
SPIK level (SPIK RNA): correspondingly decreased with HCV RNA
